# Reference: patent US9198433B2, “Substituted benzene fungicides” (E I DU PONT DE NEMOURS AND COMPANY, priority 2007, dated 2015)
# Marks after values point to notes of the source that are not given here.
# Tests used:
# Type in all cases: in vivo
# [1] = system: Septoria tritici; experiment: Test D: wheat leaf blotch, preventive spray on wheat seedlings, disease rating
# Summary of the method: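 Wheat seedlings sprayed to run-off with compound in acetone/water containing 250 ppm Trem 014 (200 ppm ≈ 500 g/ha; some results at 40 or 50 ppm), inoculated next day with Septoria tritici spores. Held 48 h saturated at 24 °C, then 19 days at 20 °C before disease rating.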
# [2] = system: Botrytis cinerea; experiment: Test F: tomato Botrytis, preventive spray on tomato seedlings, disease rating
# Summary of the method: (§1)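 Tomato seedlings sprayed to run-off, as a preventive treatment, with compound suspended in acetone/water (50/50) containing 250 ppm Trem 014 surfactant; 200 ppm equals 500 g/ha. Disease then rated. Values are at 200 ppm unless marked * (40 ppm) or ** (50 ppm).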
# [3] = system: Erysiphe graminis f. sp. tritici; experiment: Test A: wheat powdery mildew, preventive spray on wheat seedlings, disease rating
# Summary of the method: (§2)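 Disease ratings come from wheat seedlings sprayed preventively to run-off, mostly at 200 ppm, which corresponds to an application rate of 500 g/ha; certain entries used 40 ppm or 50 ppm. The carrier was 50/50 acetone/water with 250 ppm surfactant.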
# [4] = system: Alternaria solani; experiment: Test H: tomato early blight, preventive spray on tomato seedlings, disease rating
# Summary of the method: as §1
# [5] = system: Septoria nodorum; experiment: Test C: wheat glume blotch, preventive spray on wheat seedlings, disease rating
# Summary of the method: as §2
# [6] = system: Puccinia recondita f. sp. tritici; experiment: Test B: wheat leaf rust, preventive spray on wheat seedlings, disease rating
# Summary of the method: as §2
# [7] = 40 ppm (*), 100 = 100% disease control, 0 = no control relative to controls
# [8] = 200 ppm, 100 = 100% disease control, 0 = no control relative to controls
Structure (SMILES),"Percentage Disease Control, Test D ([1]; 40 ppm (*))","Percentage Disease Control, Test A ([3]; 40 ppm (*))","Percentage Disease Control, Test C ([5]; 40 ppm (*))","Percentage Disease Control, Test B ([6]; 40 ppm (*))","Percentage Disease Control, Test F ([2]; 200 ppm) [%]","Percentage Disease Control, Test H ([4]; 200 ppm) [%]","Percentage Disease Control, Test F [2, 8] [%]","Percentage Disease Control, Test A [3, 8] [%]","Percentage Disease Control, Test H [4, 8] [%]","Percentage Disease Control, Test B [6, 8] [%]",other results
COC(=O)NCc1cc(-c2ccn(Cc3ccc(C(F)(F)F)cc3)n2)ccc1Cl [Cmpd 63],100* %,97* %,99* %,100* %,,,,,,,"Percentage Disease Control, Test F ([2]; 40 ppm (*)): 0* %; Percentage Disease Control, Test H ([4]; 40 ppm (*)): 98* %"
COC(=O)NCc1cc(-c2ccn(-c3ccccc3Cl)n2)ccc1Cl [Cmpd 52],100* %,100* %,100* %,100* %,99,92,,,,,
COC(=O)NCc1cc(-c2ccnc(C3CC3)n2)ccc1Cl [Cmpd 137],,,,,,,0,95,15,99,"Percentage Disease Control, Test D [1, 7]: 97* %; Percentage Disease Control, Test C [5, 7]: 90* %"
COC(=O)NCc1cc(-c2ccn(-c3ccc(Cl)c(Cl)c3)n2)ccc1Cl [Cmpd 117],,,,,94,95,,,,,"Percentage Disease Control, Test D ([1]; 200 ppm): 100%; Percentage Disease Control, Test A ([3]; 200 ppm): 98%; Percentage Disease Control, Test C ([5]; 200 ppm): 100%; Percentage Disease Control, Test B ([6]; 200 ppm): 99%"
COC(=O)NCc1cc(-c2cn[nH]c2)ccc1Cl [Cmpd 127],,,,,,,0,0,0,9,"Percentage Disease Control, Test D [1, 8]: 53%; Percentage Disease Control, Test C [5, 8]: 0%"
CON=C(C(=O)OC)c1cc(-c2ccn(-c3cccc(C(F)(F)F)c3)n2)ccc1C [Cmpd 84],99* %,98* %,,,67,54,,,,,"Percentage Disease Control, Test C ([5]; 200 ppm): 92%; Percentage Disease Control, Test B ([6]; 200 ppm): 80%"
COC(=O)NCc1cc(-c2ccnc(-c3ccccc3)n2)ccc1Cl [Cmpd 134],,,,,,,0,0,0,84,"Percentage Disease Control, Test D [1, 8]: 87%; Percentage Disease Control, Test C [5, 7]: 96* %"
COC(=O)NCc1cc(-c2cnn(-c3ccc(Cl)cc3)n2)ccc1Cl [Compound 147],,,,,,,61,,15,,"Percentage Disease Control, Test D [1, 7]: 100* %; Percentage Disease Control, Test A [3, 7]: 100* %; Percentage Disease Control, Test C [5, 7]: 99* %; Percentage Disease Control, Test B [6, 7]: 99* %"
COC(=O)NCc1cc(-c2ccn(-c3nc(C4CC4)ns3)n2)ccc1Cl [Cmpd 95],100* %,100* %,100* %,100* %,,25,,,,,"Percentage Disease Control, Test F ([2]; 40 ppm (*)): 90* %"
CCCn1nc(C(F)(F)F)cc1-c1ccc(Cl)c(CNC(=O)OC)c1 [Cmpd 144],,,,,,,0,97,0,19,"Percentage Disease Control, Test D [1, 8]: 95%; Percentage Disease Control, Test C [5, 8]: 0%"
COC(=O)NCc1cc(-c2ccn(-c3cccc(OC(F)(F)F)c3)n2)ccc1Cl [Cmpd 68],100* %,97* %,99* %,100* %,0,,,,,,"Percentage Disease Control, Test H ([4]; 40 ppm (*)): 86* %"
COC(=O)NCc1cc(C(C)=NOC[Si](C)(C)Cc2ccccc2)ccc1Cl [Compound 17],100* %,,,99* %,0,38,,,,,"Percentage Disease Control, Test A ([3]; 200 ppm): 67%; Percentage Disease Control, Test C ([5]; 200 ppm): 100%"
